Activity calls are given as the source filed them. No cut-off for these calls is given here.
What was measured:
RAW264.7 = test: Suppression of LPS-induced NO production in mouse RAW264.7 cells treated for 2 hrs and followed by challenged with […] for 24 hrs by griess reagent; format: functional, cell-based
LLC-PK1 [1] = test: Renoprotective activity against cisplatin-induced cytotoxicity in pig LLC-PK1 cells assessed as recovery of cell viability treated for 2 hrs and followed by challenged with cisplatin for 24 hrs by MTT assay; format: functional, cell-based; details: Sus scrofa
LLC-PK1 [2] = test: Renoprotective activity against cisplatin-induced cytotoxicity in pig LLC-PK1 cells assessed as recovery of cell viability at 125 uM treated for 2 hrs and followed by challenged with cisplatin for 24 hrs by MTT assay; format: functional, cell-based; details: Sus scrofa
LLC-PK1 [3] = test: Renoprotective activity against cisplatin-induced cytotoxicity in pig LLC-PK1 cells assessed as recovery of cell viability at 25 to 125 uM treated for 2 hrs and followed by challenged with cisplatin for 24 hrs by MTT assay; format: functional, cell-based; details: Sus scrofa
LLC-PK1 [4] = test: Renoprotective activity against cisplatin-induced apoptosis in pig LLC-PK1 cells assessed as reduction in cisplatin-induced p53 level at 25 uM treated for 2 hrs and followed by challenged with cisplatin for 24 hrs by Western blot analysis; format: functional, cell-based; details: Sus scrofa
LLC-PK1 [5] = test: Renoprotective activity against cisplatin-induced apoptosis in pig LLC-PK1 cells assessed as reduction in cisplatin-induced phosphorylated JNK at 25 uM treated for 2 hrs and followed by challenged with cisplatin for 24 hrs by Western blot analysis; format: functional, cell-based; details: Sus scrofa
LLC-PK1 [6] = test: Renoprotective activity against cisplatin-induced apoptosis in pig LLC-PK1 cells assessed as reduction in cisplatin-induced dead and apoptotic cells at 25 uM treated for 2 hrs and followed by challenged with cisplatin for 24 hrs by annexin V/Tali image-based cytometry; format: functional, cell-based; details: Sus scrofa
LLC-PK1 [7] = test: Renoprotective activity against cisplatin-induced apoptosis in pig LLC-PK1 cells assessed as reduction in cisplatin-induced cleaved caspase-3 at 25 uM treated for 2 hrs and followed by challenged with cisplatin for 24 hrs by Western blot analysis; format: functional, cell-based; details: Sus scrofa
LLC-PK1 [8] = test: Renoprotective activity against cisplatin-induced apoptosis in pig LLC-PK1 cells assessed as reduction in cisplatin-induced phosphorylated ERK at 25 uM treated for 2 hrs and followed by challenged with cisplatin for 24 hrs by Western blot analysis; format: functional, cell-based; details: Sus scrofa
LLC-PK1 [9] = test: Renoprotective activity against cisplatin-induced apoptosis in pig LLC-PK1 cells assessed as reduction in cisplatin-induced phosphorylated p38 at 25 uM treated for 2 hrs and followed by challenged with cisplatin for 24 hrs by Western blot analysis; format: functional, cell-based; details: Sus scrofa
LLC-PK1 [10] = test: Renoprotective activity against cisplatin-induced cytotoxicity in pig LLC-PK1 cells assessed as recovery of cell viability at 25 uM treated for 2 hrs and followed by challenged with cisplatin for 24 hrs by MTT assay; format: functional, cell-based; details: Sus scrofa
LLC-PK1 [11] = test: Renoprotective activity against cisplatin-induced cytotoxicity in pig LLC-PK1 cells assessed as recovery of cell viability at 2 to 25 uM treated for 2 hrs and followed by challenged with cisplatin for 24 hrs by MTT assay; format: functional, cell-based; details: Sus scrofa
LLC-PK1 [12] = test: Reduction in cisplatin-induced MAPK phosphorylation in pig LLC-PK1 cells at 25 uM treated for 2 hrs and followed by challenged with cisplatin for 24 hrs by Western blot analysis; format: cell-based; details: Sus scrofa

Compound | inhibition (RAW264.7) | Activity (LLC-PK1 [1]) | Activity (LLC-PK1 [2]) | Activity (LLC-PK1 [3]) | Activity (LLC-PK1 [4]) | Activity (LLC-PK1 [5]) | Activity (LLC-PK1 [6]) | Activity (LLC-PK1 [7]) | Activity (LLC-PK1 [8]) | Activity (LLC-PK1 [9]) | Activity (LLC-PK1 [10]) | Activity (LLC-PK1 [11]) | inhibition (LLC-PK1 [12])
COc1cccc(C(=O)/C=C/c2cc(OC)c(OC)cc2Br)c1 | Dose-dependent effect | Dose-dependent effect |  |  |  |  |  |  |  |  |  |  | 
Cc1ccc(/C=C/C(=O)c2ccc(Cl)cc2)cc1 | Dose-dependent effect | Dose-dependent effect | Active |  |  |  |  |  |  |  |  |  | 
COc1ccc(C(=O)/C=C/c2cc(OC)c(Br)c(OC)c2)cc1OC | Dose-dependent effect | Dose-dependent effect |  | inactive |  |  |  |  |  |  |  |  | 
COc1cccc(C(=O)/C=C/c2ccc(Cl)cc2)c1 | Dose-dependent effect | Dose-dependent effect |  |  | Active | Active | Active | Active | Active | Active |  |  | 
COc1ccc(/C=C/C(=O)c2ccc(Br)cc2)cc1OC | Dose-dependent effect | Dose-dependent effect | Active |  |  |  |  |  |  |  |  |  | 
COc1cc(Br)c(/C=C/C(=O)c2ccc(Br)cc2)cc1OC | Dose-dependent effect | Dose-dependent effect |  |  | Active | Active | Active | Active | Active | Active | Active | Active | Active

From ChEMBL document CHEMBL3399998, “Synthesis and biological evaluation of chalcone analogues as protective agents against cisplatin-induced cytotoxicity in kidney cells” (Bioorg Med Chem Lett, 2015)
